Data on one molecule can be found in patent publication US8796230B2, “Ivermectin antagonizes ethanol inhibition in P2X4 receptors” (University of Southern California, priority 2010, dated 2014).

Test [1] addresses T1, rat P2X4R (Rattus norvegicus, UniProt P51577).
T1 construct: expressed in transfected cells; host or cells: Xenopus laevis oocytes injected with cRNA
T1 sequence (P51577 1-388): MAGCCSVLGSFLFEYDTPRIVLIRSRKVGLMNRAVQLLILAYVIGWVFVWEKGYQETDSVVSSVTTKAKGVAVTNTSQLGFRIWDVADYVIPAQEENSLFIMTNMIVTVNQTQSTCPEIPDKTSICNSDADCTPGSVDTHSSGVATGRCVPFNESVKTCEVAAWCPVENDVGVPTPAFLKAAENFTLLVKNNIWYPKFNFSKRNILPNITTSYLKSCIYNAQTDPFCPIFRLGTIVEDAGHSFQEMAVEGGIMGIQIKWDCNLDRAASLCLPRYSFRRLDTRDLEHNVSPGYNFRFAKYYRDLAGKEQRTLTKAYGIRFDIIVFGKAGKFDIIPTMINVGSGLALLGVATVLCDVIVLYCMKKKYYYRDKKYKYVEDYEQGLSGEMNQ
The test can be described thus: Two-electrode voltage-clamp of ATP EC10-induced currents in WT P2X4Rs expressed in Xenopus oocytes. The format is cell-based. As for the experimental part: Isolation of Xenopus Laevis oocytes and cRNA injections. Xenopus oocytes were isolated and maintained as described previously^18,19. All procedures for the maintenance of Xenopus Laevis frogs and oocyte isolation were approved by The Institutional Animal Care and Use Committee of the University of Southern California. Stage V and VI oocytes were used for cRNA (0.01-5 ng) injections using Nanoject II Nanoliter injection system (Drummond Scientific, Broomall, Pa.) one day after isolation. Injected oocytes were stored at 16° C. in incubation medium containing (in mM), […], theophylline 0.6, pyruvic acid 2.5, with 1% horse serum and 0.05 mg/ml gentamycin. The oocytes were used in electrophysiological recordings for 3-10 days after cRNA injections.
Site-directed mutagenesis and cRNA synthesis. The cDNA of rat P2X4R (GenBank accession No. X87763) was sub-cloned into pcDNA3 vector (Invitrogen, Carlsbad, Calif.). Mutagenesis was performed to introduce single point mutations using QuickChange IIXL Site-Directed Mutagenesis kit (Stratagene, La Jolla, Calif.). The sequences of mutant constructs were verified using automated DNA sequencing (USC/Norris DNA Core Facility, University of Southern California).
The DNA of WT or mutant receptors was linearized and transcribed using the mMESSAGE mMACHINE kit (Ambion, Austin, Tex.) to result in cRNA, which was stored at −70° C. until injection.
Whole-cell voltage-clamp recordings. Two-electrode voltage-clamp recordings of oocytes were performed using a Warner Instruments Model OC-725C oocyte clamp amplifier (Hamden, Conn.) using procedures published earlier^5,6.
Experimental procedures. To induce currents and test the effects of alcohols and IVM in the present experiments, maximal (100 μM) or submaximal ATP concentrations (EC5-10 furthered referred to as EC10) were used. It has been previously shown that the use of EC10 can maximize the effects of ethanol and minimize receptor desensitization 18,19. The washout time between agonist applications was at least 5-10 min to allow complete re-sensitization of the receptors^18, 19.
Effects of the drugs were tested after a stable response to ATP EC10 was obtained. After a sufficient washout time (5-15 min), the cells were challenged with the same ATP EC10 to ensure an accurate response to the drugs and to asses any change in the baseline level.
IVM and alcohol applications.
Data analysis. Data are obtained from several batches of oocytes of at least 3 different frogs and are expressed as mean±SEM. Ethanol (hexanol) and/or IVM effects are presented as percentage change of peak currents evoked by ATP EC10 alone. Data were fitted to a concentration-response curve by using the following logistic equation: I=Imax*[drug]/([drug]+(EC50)), where I/Imax is the percentage of the maximum obtainable response, EC50 is the concentration producing a half-maximal response. GraphPAD Prism software (San Diego, Calif.) was used for data analysis and curve fitting. Statistical analysis was performed using unpaired t-test with significance set at P<0.05.
A general note: Two-electrode voltage clamp is typically applied to oocytes expressing channels or transporters.

The subject of test [2] is C57BL/6 mice. The test can be described thus: Two-bottle choice ethanol (10E versus water) intake in C57BL/6 mice.
Description: Based on the initial experiments, a second study was conducted using a similar research design strategy with the following changes. Using a within subjects design, alcohol drinking was allowed to stabilize (based on DOSE approximately 10 g/kg) with a new set of C57Bl mice (n=15). […] On intervening days, the mice were injected with saline. After 3 days of saline injections (allowing for alcohol drinking to restabilize back to ‘baseline’ levels), the mice were injected with a single, higher dose of IVM (5.0 mg/kg). Once again drinking was allowed to re-established back to baseline.
The target in test [3] is T2, rat WT P2X4 receptor (Rattus norvegicus, UniProt P51577).
T2 construct: expressed in transfected cells; host or cells: Xenopus laevis oocytes injected with cRNA
T2 sequence (P51577 1-388): T1 sequence (P51577 1-388)
Description: Comparison of Ivermectin analogues: two-electrode voltage-clamp of ATP EC10 currents in rat WT P2X4 receptor in Xenopus oocytes. The class given is cell-based. As for the experimental part: Isolation of Xenopus Oocytes and cRNA Injections. Xenopus laevis frog (Nasco; WI) maintenance, oocyte isolation and cRNA injections were performed according to protocols as described previously (11,12,24).
Transcription of cDNA to cRNA. XL-Blue E. coli competent cells (Stratagene; CA) were transformed with rat WT P2X4 receptor cDNAs cloned into pcDNA3 vector (Invitrogen; CA). The isolated DNA was linearized and transcribed to result in capped cRNA, which was dissolved in nuclease-free water and stored at −70° C. until injection.
Whole-Cell Voltage Clamp Recording. […] Electrodes were prepared and used to impale the oocyte that was continuously perfused at the rate of 3-4 ml/min by extracellular bathing solution per procedures previously published (11,12,24). The peak currents recorded using a strip-chart recorder (Barnstead/Thermolyne, Iowa) were used in data analysis. All experiments were performed at room temperature (20-23° C.).
Experimental Procedures. Maximal ATP currents were induced by 15 s application of 100 μM ATP. Submaximal ATP concentrations (EC10) were applied for 20 s to generate currents. Ethanol and ABM/IVM were co-applied with ATP EC10. Washout time between drug applications was at least 5 min.
Data Analysis. Data are obtained from several batches of at least 3 different oocyte batches and are presented as percentage change of peak currents evoked by ATP EC10 alone±SEM. GraphPAD Prism software (San Diego, Calif.) was used for data analysis and curve fitting. Statistical analysis was performed using Student's unpaired t-test and significance set at P<0.05.

For `CC[C@H](C)[C@H]1O[C@]2(CC[C@@H]1C)C[C@@H]1C[C@@H](C/C=C(\C)[C@@H](O[C@H]3C[C@H](OC)[C@@H](O[C@H]4C[C@H](OC)[C@@H](O)[C@H](C)O4)[C@H](C)O3)[C@@H](C)/C=C/C=C3\CO[C@@H]4[C@H](O)C(C)=C[C@@H](C(=O)O1)[C@]34O)O2` [IVM, 5-O demethyl-22,23-dihydroavermectin A1a], the “antagonism of the inhibitory effect of ethanol on ATP-activated currents” value in test [1] (0.5 μM IVM co-applied with 25 mM ethanol) was “completely antagonized”. The “potentiation of ATP-gated currents in P2X4Rs” value in test [1] (0.5 μM IVM, delivered separately, ATP EC10) was found to be 31±4.9%. The “antagonism of the inhibitory effects of ethanol” value in test [1] (IVM 0.5 μM, 200 mM ethanol) is on record as “did not significantly alter”; in test [1] (IVM 0.5 μM, 50 and 100 mM ethanol), “completely antagonized”; in test [1] (IVM 1.0 and 3.0 μM, all ethanol concentrations (50-200 mM)), “completely antagonizing”; in test [3] (IVM co-applied with ethanol (FIGS. 9A and B)), “antagonizes”. In test [1] (IVM 3 μM applied individually), the “effect on ATP-induced currents in P2X4R” value is given as “significantly potentiated”. The “net result of exposure to both IVM and hexanol versus additive effects” value in test [1] (IVM 3 μM with hexanol 10 mM) is reported as “significantly less”. Further, in test [1] (IVM 0.5, 1 and 3 μM with ethanol 50, 100, 200 mM), the “combined action of IVM and ethanol versus estimated additive values of the individual effects” value is “significantly lower”. The “effect on EC10 ATP-gated currents in P2X4Rs” value in test [1] (IVM co-applied with ATP, concentration-dependent and reversible) is recorded as “significantly potentiated”. For the same molecule, the average water consumption entry in test [2] (IVM 10 mg/kg intraperitoneally) is listed as “significant increase”. In addition, the ethanol intake entry in test [2] (IVM 10 mg/kg intraperitoneally) was “non-significant reduction”. For the same molecule, the “daily 10E preference” value in test [2] (IVM 10 mg/kg intraperitoneally prior to each day of access, 4 days, versus saline) is reported as “strong trend”. Also, in test [2] (IVM 10 mg/kg intraperitoneally, day 3), the “10E preference on day 3” value was “significantly lower”. In test [2] (single injection of IVM 2.5 mg/kg and 5.0 mg/kg, within subjects design, versus baseline with saline), the ethanol consumption entry was “significantly reduced”. Also, the “potentiation of ATP-induced currents, concentration dependence” value in test [3] (co-application and pre-incubation (FIGS. 10C and 10D)) is on record as “concentration dependent”.
